Read-outs that look alike come from different tables or passages of the source.
Assay: Pharmacokinetics after single intravenous drip infusion, plasma LC-MS/MS
Assay type: in vivo, Philippine macaques
Conditions: for concentration at 0.17 hr / concentration at 0.25 hr / concentration at 0.5 hr / concentration at 0.75 hr / concentration at 1 hr: intravenous, AST-3424-D6 intravenous drip infusion 0.42 mg/kg
Experimental: AST-3424 and AST-3424-D6 (i.e. the compound of formula I) were administered to Philippine macaques by intravenous drip infusion, and blood samples were collected at different appointed times. LC-MS/MS was used to determine concentrations of the test substances in plasma of the Philippine macaques after administration, and relevant pharmacokinetic parameters were calculated.
Preparation method: 0.447 ml of AST-3424 (0.2 mg/ml) and 0.481 ml of AST-3424-D6 (0.2 mg/ml) were added into 104.272 ml of the dissolvent, respectively, and mixed for 5 minutes to obtain colorless and clarified solutions with pH 7.0.
The four male Philippine macaques were purchased from Guangxi Xiongsen Primate Development Experiment Co., Ltd. All Philippine macaques were healthy with qualified medical examination and no abnormality. Three of animals were used for the experiment, and one of them was used to prepare blank plasma.
About 0.8 ml of blood samples were collected through femoral vein and anticoagulated with heparin sodium. Appointed times of blood collection were before administration, 0.17, 0.25, 0.5, 0.75, 1, 2, and 4 hours after administration.
The blood samples were placed on ice after collection. Next, plasma samples were separated by centrifugation, and centrifugation conditions were 3500 rpm for 10 minutes at 4° C. Then, the collected plasma samples were stored at −80° C. until analysis. The plasma samples were analyzed by LC-MS/MS by an analysis department of an experimental institution. Besides, Lower limit of quantifications (LLOQ) of AST-3424 and AST-3424-D6 detection were 1 ng/ml. The accuracy of analysis results of an accompanying standard curve and a quality control samples all met the relevant requirements of biological analysis (the accuracy of the quality control samples exceeding 66.7% was between 85˜115%) in a process of the sample detection.
According to average blood concentration data of each group at each appointed time, the pharmacokinetic parameters of the compounds were respectively computed by a pharmacokinetic computing software, a non-compartmental model. In addition, the pharmacokinetic parameters were AUC0-t, AUC0-∞, MRT0-∞, Cmax, Tmax, t1/2, etc. In the case of the concentrations of the samples whose concentration being lower than a lower limit of quantification, the following schemes were used to compute the pharmacokinetic parameters. The samples sampled before reaching Cmax shall be computed as zero value, while the samples sampled after reaching Cmax shall be computed as non-quantifiable (marked as “BLQ”).
After a single intravenous infusion of the compounds AST-3424 and AST-3424-D6 was administered to the Philippine macaques, the whole blood samples of the corresponding animals were collected at the appointed times. Next, the whole blood samples were processed and biologically analyzed to obtain concentrations of the compounds in the plasma at the different appointed times. Results of the assay were listed in Table 14 below, and corresponding means of the plasma-drug concentration-time curves are shown in FIG. 3.
According to the plasma-drug concentration data of each drug group, the pharmacokinetic parameters of each compound group were computed using the non-compartmental model of the pharmacokinetic computing software. The pharmacokinetic

[1] = male, Philippine macaque, plasma, 0.42 mg/kg, individual animals 101, 102, 103, read-out: Plasma-drug concentration
[2] = male, Philippine macaque, plasma, 0.42 mg/kg, read-out: Plasma-drug concentration, mean

## [2H]C([2H])([2H])N(C(=O)c1cccc(Oc2cc([C@H](C)OP(=O)(N3CC3)N3CC3)ccc2[N+](=O)[O-])c1)C([2H])([2H])[2H] [AST-3424-D6]
AST-3424-D6 single intravenous infusion, Table 15 heading 0.58 mg/kg (text: 0.42 mg/kg), plasma, individual animals 101, 102, 103
  Vz: 0.23679 L/kg
Philippine macaques, FIG. 3, 0.42 mg/kg AST-3424-D6 vs 0.58 mg/kg AST-3424
  Integral area under the drug-time curve (AUC) compared with AST-3424, in words: smaller
male, Philippine macaque, cynomolgus monkey, plasma, iv, 0.42 mg/kg, AST-3424-D6 single intravenous infusion, Table 15 heading 0.58 mg/kg (text: 0.42 mg/kg), plasma, individual animals 101, 102, 103, read-out: AUC(0−t)
  AUC(0-t): 286 ng·h/mL
male, Philippine macaque, cynomolgus monkey, plasma, iv, 0.42 mg/kg, AST-3424-D6 single intravenous infusion, Table 15 heading 0.58 mg/kg (text: 0.42 mg/kg), plasma, individual animals 101, 102, 103, read-out: AUC(0−∞)
  AUC(0-inf): 334 ng·h/mL
male, Philippine macaque, cynomolgus monkey, plasma, iv, 0.42 mg/kg, AST-3424-D6 single intravenous infusion, Table 15 heading 0.58 mg/kg (text: 0.42 mg/kg), plasma, individual animals 101, 102, 103, read-out: Cl (converted)
  clearance: 20.9 mL/min/kg
male, Philippine macaque, cynomolgus monkey, plasma, iv, 0.42 mg/kg, AST-3424-D6 single intravenous infusion, Table 15 heading 0.58 mg/kg (text: 0.42 mg/kg), plasma, individual animals 101, 102, 103, read-out: Cmax
  Cmax: 485 ng/mL
male, Philippine macaque, cynomolgus monkey, plasma, iv, 0.42 mg/kg, AST-3424-D6 single intravenous infusion, Table 15 heading 0.58 mg/kg (text: 0.42 mg/kg), plasma, individual animals 101, 102, 103, read-out: MRT(0−t)
  MRT last: 9 min
male, Philippine macaque, cynomolgus monkey, plasma, iv, 0.42 mg/kg, AST-3424-D6 single intravenous infusion, Table 15 heading 0.58 mg/kg (text: 0.42 mg/kg), plasma, individual animals 101, 102, 103, read-out: MRT(0−∞)
  MRT inf: 9.6 min
male, Philippine macaque, cynomolgus monkey, plasma, iv, 0.42 mg/kg, AST-3424-D6 single intravenous infusion, Table 15 heading 0.58 mg/kg (text: 0.42 mg/kg), plasma, individual animals 101, 102, 103, read-out: T1/2 (converted)
  half-life: 7.8 min
male, Philippine macaque, cynomolgus monkey, plasma, iv, 0.42 mg/kg, AST-3424-D6 single intravenous infusion, Table 15 heading 0.58 mg/kg (text: 0.42 mg/kg), plasma, individual animals 101, 102, 103, read-out: Vss
  Vd: 0.198 L/kg
male, Philippine macaque, cynomolgus monkey, plasma, iv, 0.42 mg/kg, AST-3424-D6 single intravenous infusion, Table 15 heading 0.58 mg/kg (text: 0.42 mg/kg), plasma, individual animals 101, 102, 103, read-out: Vz
  Vd: 0.234 L/kg
male, Philippine macaque, cynomolgus monkey, plasma, iv, 0.42 mg/kg, AST-3424-D6 single intravenous infusion, Table 15 heading 0.58 mg/kg (text: 0.42 mg/kg), plasma, read-out: AUC(0−t), Mean
  AUC(0-t): 302 ± 22.6 ng·h/mL
male, Philippine macaque, cynomolgus monkey, plasma, iv, 0.42 mg/kg, AST-3424-D6 single intravenous infusion, Table 15 heading 0.58 mg/kg (text: 0.42 mg/kg), plasma, read-out: AUC(0−∞), Mean
  AUC(0-inf): 315 ± 27.2 ng·h/mL
male, Philippine macaque, cynomolgus monkey, plasma, iv, 0.42 mg/kg, AST-3424-D6 single intravenous infusion, Table 15 heading 0.58 mg/kg (text: 0.42 mg/kg), plasma, read-out: Cmax, Mean
  Cmax: 522 ± 46 ng/mL
male, Philippine macaque, cynomolgus monkey, plasma, iv, 0.42 mg/kg, AST-3424-D6 single intravenous infusion, Table 15 heading 0.58 mg/kg (text: 0.42 mg/kg), plasma, read-out: MRT(0−t), Mean
  MRT last: 8.4 ± 0.6 min
male, Philippine macaque, cynomolgus monkey, plasma, iv, 0.42 mg/kg, AST-3424-D6 single intravenous infusion, Table 15 heading 0.58 mg/kg (text: 0.42 mg/kg), plasma, read-out: MRT(0−∞), Mean
  MRT inf: 9 min
male, Philippine macaque, cynomolgus monkey, plasma, iv, 0.42 mg/kg, AST-3424-D6 single intravenous infusion, Table 15 heading 0.58 mg/kg (text: 0.42 mg/kg), plasma, read-out: T1/2, Mean (converted)
  half-life: 7.2 min
male, Philippine macaque, cynomolgus monkey, plasma, iv, 0.42 mg/kg, AST-3424-D6 single intravenous infusion, Table 15 heading 0.58 mg/kg (text: 0.42 mg/kg), plasma, read-out: Tmax, Mean
  Tmax: 18.6 min
male, Philippine macaque, cynomolgus monkey, plasma, iv, 0.42 mg/kg, AST-3424-D6 single intravenous infusion, Table 15 heading 0.58 mg/kg (text: 0.42 mg/kg), plasma, read-out: Vss, Mean
  Vd: 0.202 L/kg
[1]
  concentration at 0.17 hr: 416 ng/mL
  concentration at 0.25 hr: 479 ng/mL
  concentration at 0.5 hr: 485 ng/mL
  concentration at 0.75 hr: 113 ng/mL
  concentration at 1 hr: 41 ng/mL
[2]
  concentration at 0.17 hr: 490 ng/mL
  concentration at 0.25 hr: 505 ng/mL
  concentration at 0.5 hr: 502 ng/mL
  concentration at 0.75 hr: 109 ng/mL
  concentration at 1 hr: 33.8 ng/mL
male, cynomolgus monkey, plasma, iv, 0.42 mg/kg, AST-3424-D6 single intravenous infusion, Table 15 heading 0.58 mg/kg (text: 0.42 mg/kg), plasma, read-out: Cl, Mean (converted)
  clearance: 22.3 mL/min/kg
male, cynomolgus monkey, plasma, iv, 0.42 mg/kg, AST-3424-D6 single intravenous infusion, Table 15 heading 0.58 mg/kg (text: 0.42 mg/kg), plasma, read-out: Vz, Mean
  Vd: 0.235 L/kg
